The target of data set [1] is T1, LcOe 229 (Oenococcus oeni, UniProt Q04HQ8).
T1 construct: gene OEOE_0009
T1 sequence (Q04HQ8 1-488): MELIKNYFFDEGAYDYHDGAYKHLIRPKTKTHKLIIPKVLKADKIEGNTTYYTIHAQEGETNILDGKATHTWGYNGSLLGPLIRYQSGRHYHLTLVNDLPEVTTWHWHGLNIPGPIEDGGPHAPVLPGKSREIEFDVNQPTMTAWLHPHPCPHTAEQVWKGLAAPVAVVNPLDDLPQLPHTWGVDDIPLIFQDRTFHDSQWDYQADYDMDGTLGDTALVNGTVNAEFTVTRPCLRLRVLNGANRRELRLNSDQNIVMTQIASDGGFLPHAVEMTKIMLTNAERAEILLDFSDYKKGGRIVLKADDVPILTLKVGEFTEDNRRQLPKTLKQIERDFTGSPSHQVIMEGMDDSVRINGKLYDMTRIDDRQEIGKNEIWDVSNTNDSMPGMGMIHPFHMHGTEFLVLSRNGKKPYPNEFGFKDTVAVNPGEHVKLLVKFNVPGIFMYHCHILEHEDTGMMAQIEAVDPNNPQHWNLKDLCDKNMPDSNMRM
In kind it is biochemical. The note with it: 2 mM ABTS, 0.1 mM CuSO4, McIlvaine buffer pH 2.5.

Data set [2] addresses T1, LcOe 229. The note with it: read-out: % residual activity at 1 mM.
Substrate in data set [3]: COc1cccc(OC)c1O
In words: oxidation followed at OD468, microplate, initial rates. The note with it: McIlvaine buffer pH 8, 24 °C, hyperbolic. The class given is biochemical, Oenococcus oeni.

Data on 9 molecules can be found in paper PMC11312515, “Biochemical and Structural Characterization of a Novel Psychrophilic Laccase (Multicopper Oxidase) Discovered from Oenococcus oeni 229 (ENOLAB 4002)” (International Journal of Molecular Sciences, 2024).

With `C#CCN(C)C(C)Cc1ccccc1` (stereo not drawn) [deprenyl], on LcOe 229 [1], the “% residual activity at 1 mM” value was “observed with ZnCl2, EDTA, pargyline, EDC, deprenyl, clorgyline, and NaCl”.

In the case of `C#CCN(C)CCCOc1ccc(Cl)cc1Cl` [clorgyline], the “% residual activity at 1 mM” value on LcOe 229 [1] is “observed with ZnCl2, EDTA, pargyline, EDC, deprenyl, clorgyline, and NaCl”. For `NNC(N)=O` [semicarbazide], at LcOe 229 [2], the remaining activity at 1000 µM is under 15%. Same read-out and setting: the same measure for `C#CCN[C@@H]1CCc2ccccc21` [rasagiline]: 65%. The same measure, in the same setting: the same measure for `c1ccc(-c2ccccn2)nc1` [2,2′-bipyridyl]: 94%. `CCN=C=NCCCN(C)C` [EDC]: the “% residual activity at 1 mM” value on LcOe 229 [1] is “observed with ZnCl2, EDTA, pargyline, EDC, deprenyl, clorgyline, and NaCl”.

As to `C#CCN(C)Cc1ccccc1` [pargyline], the “% residual activity at 1 mM” value at LcOe 229 [1] is “observed with ZnCl2, EDTA, pargyline, EDC, deprenyl, clorgyline, and NaCl”.

Regarding `NC1CC1` [cyclopropylamine], the remaining activity at 1000 µM on LcOe 229 [2] amounted to 77%.

B1: LcOe 229 (Oenococcus oeni PSU-1) (protein)
chain: T1 sequence (Q04HQ8 1-488)
notes: full length, 488 residues, 55544 Da, in pET-28a(+) NheI/BamHI, N-terminal His tag (thrombin-cleavable; cleavage told for crystallography), E. coli BL21(DE3)/pGro7; Ni-NTA; monomer; PCR fragment given as 1641 bp
On to B1, for which, in data set [3], the Km was 0.73 (±0.17) mM, the Vmax came to 0.01 µmol/min/mg, the kcat was found to be 0.01 s⁻¹ and the kcat/Km was determined as 10 M⁻¹ s⁻¹.
